Assay results as given in patent publication US10780074B2, “Compounds and uses thereof” (Sunovion Pharmaceuticals Inc., priority 2017, dated 2020).
Where a name gives a salt, the structure may show the parent alone.

Test system: behaviors of compound-treated mice
Test: Neuropharmacological Assay (SmartCube)
Type: in vivo
Conditions: for minimal effective dose: Mus musculus, ip, 0.25 h, dose having 50% or more total activity in SmartCube, i.p., read-out: MED (minimal effective dose); for AD: ADHD (probability that activity matches class) / AG: analgesic (probability that activity matches class) / AX: anxiolytic (probability that activity matches class) / CE: cognitive enhancer (probability that activity matches class) / DP: anti-depressant (probability that activity matches class) / MS: mood stabilizer (probability that activity matches class) / PS: anti-psychotic (probability that activity matches class) / SD: sedative hypnotic (probability that activity matches class) / UN: uncharacterized CNS activity (probability that activity matches class): i.p. 15 min before behavioral test, most efficacious dose(s) of 3 doses
Outline: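 Mice dosed i.p. 15 min before testing, with compound in N-methyl-2-pyrrolidone/PEG/propylene glycol, were video-recorded and algorithmically compared with reference-drug behavioral signatures. This gave class-match probabilities (antidepressant, anxiolytic, etc.) at the most efficacious of 3 doses. MED was defined as the dose with ≥50% total activity, usually tested across 0.3–30 mpk.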

| Compound | minimal effective dose | AD: ADHD (probability that activity matches class) | AG: analgesic (probability that activity matches class) | AX: anxiolytic (probability that activity matches class) | CE: cognitive enhancer (probability that activity matches class) | DP: anti-depressant (probability that activity matches class) | MS: mood stabilizer (probability that activity matches class) | PS: anti-psychotic (probability that activity matches class) | SD: sedative hypnotic (probability that activity matches class) | UN: uncharacterized CNS activity (probability that activity matches class) |
| --- | --- | --- | --- | --- | --- | --- | --- | --- | --- | --- |
| CNC[C@H]1OCCc2ccc(-c3ccncc3)cc21 [Compound 50, (S)—N-Methyl-1-(7-(pyridin-4-yl)isochroman-1-yl)methanamine hydrochloride] | 3 to 10 mg/kg | + (LOQ ≤ + <5%) | + (LOQ ≤ + <5%) | ++ (5% ≤ ++ <25%) | ++ (5% ≤ ++ <25%) | ++ (5% ≤ ++ <25%) | + (LOQ ≤ + <5%) | + (LOQ ≤ + <5%) | + (LOQ ≤ + <5%) | ++++ (50% ≤ ++++) |
| NC[C@@H]1OCCc2c(-c3ncc[nH]3)cccc21 (single isomer, unassigned) [Compound 108, hydrochloride salt] | 10 to 30 mg/kg | + (LOQ ≤ + <5%) | ++ (5% ≤ ++ <25%) | ++ (5% ≤ ++ <25%) | + (LOQ ≤ + <5%) | ++ (5% ≤ ++ <25%) | + (LOQ ≤ + <5%) | ++ (5% ≤ ++ <25%) | ++ (5% ≤ ++ <25%) | +++ (25% ≤ +++ <50%) |
| NC[C@H]1OCCc2cccc(-c3cccnc3)c21 (single isomer, unassigned) [Compound 10, hydrochloride] | 10 to 30 mg/kg | + (LOQ ≤ + <5%) | +++ (25% ≤ +++ <50%) | + (LOQ ≤ + <5%) | + (LOQ ≤ + <5%) | ++ (5% ≤ ++ <25%) | + (LOQ ≤ + <5%) | + (LOQ ≤ + <5%) | + (LOQ ≤ + <5%) | + (LOQ ≤ + <5%) |
| CNC[C@@H]1OCCc2c(-c3ccncn3)cccc21 (single isomer, unassigned) [Compound 72, hydrochloride salt] | > 30 mg/kg | + (LOQ ≤ + <5%) | + (LOQ ≤ + <5%) | + (LOQ ≤ + <5%) | + (LOQ ≤ + <5%) | + (LOQ ≤ + <5%) | + (LOQ ≤ + <5%) | + (LOQ ≤ + <5%) | + (LOQ ≤ + <5%) | + (LOQ ≤ + <5%) |
| NCC1OCCc2ccc(-c3ccncn3)cc21 (stereo not shown) [Compound 57, 7-(Pyrimidin-4-yl)isochroman-1-yl)methanamine hydrochloride] | 10 to 30 mg/kg | + (LOQ ≤ + <5%) | + (LOQ ≤ + <5%) | + (LOQ ≤ + <5%) | ++ (5% ≤ ++ <25%) | ++ (5% ≤ ++ <25%) | + (LOQ ≤ + <5%) | ++ (5% ≤ ++ <25%) | ++ (5% ≤ ++ <25%) | +++ (25% ≤ +++ <50%) |
| CNC[C@H]1OCCc2c(-c3cocn3)cccc21 [Compound 103, (S)—N-methyl-1-(5-(oxazol-4-yl)isochroman-1-yl)methanamine HCl salt] | ≤ 3 mg/kg | ++ (5% ≤ ++ <25%) | + (LOQ ≤ + <5%) | ++ (5% ≤ ++ <25%) | + (LOQ ≤ + <5%) | ++++ (50% ≤ ++++) | + (LOQ ≤ + <5%) | + (LOQ ≤ + <5%) | + (LOQ ≤ + <5%) | + (LOQ ≤ + <5%) |
| CNC[C@H]1OCCc2c(-c3ccncn3)cccc21 (single isomer, unassigned) [Compound 73, hydrochloride salt] | 3 to 10 mg/kg | + (LOQ ≤ + <5%) | + (LOQ ≤ + <5%) | ++ (5% ≤ ++ <25%) | + (LOQ ≤ + <5%) | ++++ (50% ≤ ++++) | + (LOQ ≤ + <5%) | + (LOQ ≤ + <5%) | + (LOQ ≤ + <5%) | + (LOQ ≤ + <5%) |
| CNCC1OCCc2ccc(-c3ccncn3)cc21 (stereo not shown) [Compound 58, N-Methyl-1-(7-(pyrimidin-4-yl)isochroman-1-yl)methanamine hydrochloride salt] | 10 to 30 mg/kg | + (LOQ ≤ + <5%) | + (LOQ ≤ + <5%) | ++ (5% ≤ ++ <25%) | + (LOQ ≤ + <5%) | + (LOQ ≤ + <5%) | + (LOQ ≤ + <5%) | + (LOQ ≤ + <5%) | + (LOQ ≤ + <5%) | ++++ (50% ≤ ++++) |
| CNC[C@@H]1OCCc2c(-c3ccno3)cccc21 [Compound 94, (R)-1-(5-(Isoxazol-5-yl)isochroman-1-yl)-N-methylmethanamine] | 10 to 30 mg/kg | + (LOQ ≤ + <5%) | + (LOQ ≤ + <5%) | + (LOQ ≤ + <5%) | + (LOQ ≤ + <5%) | + (LOQ ≤ + <5%) | + (LOQ ≤ + <5%) | + (LOQ ≤ + <5%) | + (LOQ ≤ + <5%) | + (LOQ ≤ + <5%) |
| CNC[C@H]1OCCCc2c(-c3ccccn3)cccc21 (single isomer, unassigned) [Compound 157, hydrochloride salt] | 10 to 30 mg/kg | + (LOQ ≤ + <5%) | + (LOQ ≤ + <5%) | ++ (5% ≤ ++ <25%) | + (LOQ ≤ + <5%) | + (LOQ ≤ + <5%) | + (LOQ ≤ + <5%) | + (LOQ ≤ + <5%) | + (LOQ ≤ + <5%) | + (LOQ ≤ + <5%) |
| NCC1OCCc2c(-c3cccnn3)cccc21 (stereo not shown) [Compound 62, (5-(Pyridazin-3-yl)isochroman-1-yl)methanaminehydrochloride salt] | > 30 mg/kg | + (LOQ ≤ + <5%) | + (LOQ ≤ + <5%) | ++ (5% ≤ ++ <25%) | + (LOQ ≤ + <5%) | ++ (5% ≤ ++ <25%) | + (LOQ ≤ + <5%) | + (LOQ ≤ + <5%) | + (LOQ ≤ + <5%) | + (LOQ ≤ + <5%) |
| CNC[C@@H]1OCCc2cc(-c3cccnc3)ccc21 [Compound 5, (R)-N-Methyl(6-(pyridin-3-yl)isochroman-1-yl)methanamine bis-hydrochloride] | 3 to 10 mg/kg | + (LOQ ≤ + <5%) | ++ (5% ≤ ++ <25%) | ++ (5% ≤ ++ <25%) | + (LOQ ≤ + <5%) | ++++ (50% ≤ ++++) | + (LOQ ≤ + <5%) | ++ (5% ≤ ++ <25%) | + (LOQ ≤ + <5%) | + (LOQ ≤ + <5%) |
| NC[C@H]1OCCCc2c(-c3ccncc3)cccc21 (single isomer, unassigned) [Compound 151] | 3 to 10 mg/kg | + (LOQ ≤ + <5%) | + (LOQ ≤ + <5%) | ++ (5% ≤ ++ <25%) | + (LOQ ≤ + <5%) | ++++ (50% ≤ ++++) | + (LOQ ≤ + <5%) | + (LOQ ≤ + <5%) | + (LOQ ≤ + <5%) | + (LOQ ≤ + <5%) |
